Literature values as cited in patent US10912731B2, “Biphasic oral care compositions” (Colgate-Palmolive Company, priority 2017, dated 2021).

Conditions: aqueous solution

Compound: NCCCC[C@H](N)C(=O)O [lysine]
- Isoelectric point: 9.7 pH
